Data as given in paper PMC11012124, “Synthesis of Novel Triazine-Based Chalcones and 8,9-dihydro-7H-pyrimido[4,5-b][1,4]diazepines as Potential Leads in the Search of Anticancer, Antibacterial and Antifungal Agents” (International Journal of Molecular Sciences, 2024).

Experiments:
Test in all cases: cells
SNB-75 = conditions: Homo sapiens, SNB-75, 48 h
NCI-H23 = conditions: Homo sapiens, NCI-H23, 48 h; for CC50: read-out: LC50
K-562 = conditions: Homo sapiens, K562, 48 h; for GI50: K-562, 48 h; for CC50: read-out: LC50
SK-MEL-28 = conditions: Homo sapiens, SK-MEL-28, 48 h; for CC50: read-out: LC50
786-0 = conditions: Homo sapiens, 786-0, 48 h; for CC50: read-out: LC50
MDA-MB-468 = conditions: Homo sapiens, MDA-MB-468, 48 h; for CC50: read-out: LC50
NCI-H460 = conditions: Homo sapiens, NCI-H460, 48 h; for CC50: read-out: LC50
HOP-92 = conditions: Homo sapiens, HOP-92, 48 h; for CC50: read-out: LC50
SK-MEL-5 = conditions: Homo sapiens, SK-MEL-5, 48 h; for CC50: read-out: LC50
IGROV1 = conditions: Homo sapiens, IGROV-1, 48 h; for CC50: read-out: LC50
SK-OV-3 = conditions: Homo sapiens, SK-OV-3, 48 h; for CC50: read-out: LC50
NCI-H522 = conditions: Homo sapiens, NCI-H522, 48 h; for CC50: read-out: LC50
RXF 393 = conditions: Homo sapiens, RXF 393, 48 h; for CC50: read-out: LC50
A549/ATCC = conditions: Homo sapiens, A549, 48 h; for CC50: read-out: LC50
SK-MEL-2 = conditions: Homo sapiens, SK-MEL-2, 48 h; for CC50: read-out: LC50
SR = conditions: Homo sapiens, 48 h; for CC50: read-out: LC50
HCT-15 = conditions: Homo sapiens, HCT-15, 48 h; for CC50: read-out: LC50
CAKI-1 = conditions: Homo sapiens, CAKI-1, 48 h; for CC50: read-out: LC50
TK-10 = conditions: Homo sapiens, TK-10, 48 h; for CC50: read-out: LC50
SW-620 = conditions: Homo sapiens, SW-620, 48 h; for CC50: read-out: LC50
SNB-19 = conditions: Homo sapiens, SNB-19, 48 h; for CC50: read-out: LC50
KM12 = conditions: Homo sapiens, KM12, 48 h; for CC50: read-out: LC50
HCC-2998 = conditions: Homo sapiens, HCC 2998, 48 h; for CC50: read-out: LC50

In the case of `CN(C)c1nc(NCCNS(=O)(=O)c2ccc(C(=O)/C=C/c3ccccc3)cc2)nc(N2CCOCC2)n1` [23a], the GI50 (SNB-75) is reported as 5.49 µM, the CC50 (SNB-75; read-out: LC50) is reported as 44.6 µM and the GI50 (NCI-H23) is reported as 16 µM. For the same molecule, the CC50 (NCI-H23) was 58 µM, the GI50 (K-562) was 2.19 µM and the CC50 (K-562) was over 100 µM. For the same molecule, the GI50 (SK-MEL-28) was 17.2 µM, the CC50 (SK-MEL-28) was 63.9 µM and the GI50 (786-0) was 14.8 µM. For the same molecule, the CC50 (786-0) was 57.1 µM, the GI50 (MDA-MB-468) was 4.17 µM and the CC50 (MDA-MB-468) was 49.9 µM. For the same molecule, the GI50 (NCI-H460) was 18.2 µM, the CC50 (NCI-H460) was 80.7 µM and the GI50 (HOP-92) was 12.2 µM. The CC50 (HOP-92) was 58 µM, the GI50 (SK-MEL-5) was 15.9 µM and the CC50 (SK-MEL-5) was 54.3 µM. The GI50 (IGROV1) was 15300 nM, the CC50 (IGROV1) was 66.4 µM and the GI50 (SK-OV-3) was 15.6 µM. The CC50 (SK-OV-3) was 56.8 µM, the GI50 (NCI-H522) was 13.6 µM and the CC50 (NCI-H522) was 54.1 µM. It also gave a GI50 (RXF 393) of 7.87 µM, a CC50 (RXF 393) of 55.8 µM and a GI50 (A549/ATCC) of 13.6 µM. For the same molecule, the CC50 (A549/ATCC) was 59.1 µM, the GI50 (SK-MEL-2) was 15.3 µM and the CC50 (SK-MEL-2) was 56.9 µM. For the same molecule, the GI50 (SR) was 3.2 µM, the CC50 (SR) was over 100 µM and the GI50 (HCT-15) was 5210 nM. It also gave a CC50 (HCT-15) of 61.7 µM, a GI50 (CAKI-1) of 12.2 µM and a CC50 (CAKI-1) of 49.9 µM. For the same molecule, the GI50 (TK-10) was 16.4 µM, the CC50 (TK-10) was 55.5 µM and the GI50 (SW-620) was 3.41 µM. It also gave a CC50 (SW-620) of 42.7 µM, a GI50 (SNB-19) of 14.8 µM and a CC50 (SNB-19) of 57.3 µM. For the same molecule, the GI50 (KM12) was 2 µM, the CC50 (KM12) was 8.93 µM and the GI50 (HCC-2998) was 16.7 µM. For the same molecule, the CC50 (HCC-2998) was 57.7 µM.

`CN(C)c1nc(NCCNS(=O)(=O)c2ccc(C(=O)/C=C/c3ccc(F)cc3)cc2)nc(N2CCOCC2)n1` [23f] showed a GI50 (NCI-H23) of 14.6 µM, a CC50 (NCI-H23) of 54.3 µM and a GI50 (K-562) of 3.7 µM. It also gave a CC50 (K-562) of over 100 µM, a GI50 (SK-MEL-28) of 14.9 µM and a CC50 (SK-MEL-28) of 53.4 µM. For the same molecule, the GI50 (786-0) was 14.5 µM, the CC50 (786-0) was 57 µM and the GI50 (MDA-MB-468) was 8.08 µM. The CC50 (MDA-MB-468) was 54.7 µM, the GI50 (NCI-H460) was 15.7 µM and the CC50 (NCI-H460) was 69.4 µM. The GI50 (HOP-92) was 12.7 µM, the CC50 (HOP-92) was 63.5 µM and the GI50 (SK-MEL-5) was 15.7 µM. The CC50 (SK-MEL-5) was 54.4 µM, the GI50 (IGROV1) was 2270 nM and the CC50 (IGROV1) was 25.4 µM. It also gave a GI50 (SK-OV-3) of 13.8 µM, a CC50 (SK-OV-3) of 55.5 µM and a GI50 (NCI-H522) of 13.3 µM. It also gave a CC50 (NCI-H522) of 53.2 µM, a GI50 (RXF 393) of 8.82 µM and a CC50 (RXF 393) of 46.5 µM. The GI50 (A549/ATCC) was 13.7 µM, the CC50 (A549/ATCC) was 56.8 µM and the GI50 (SK-MEL-2) was 13.7 µM. The CC50 (SK-MEL-2) was 52.7 µM, the GI50 (SR) was 3.45 µM and the CC50 (SR) was over 100 µM. The GI50 (HCT-15) was 2150 nM, the CC50 (HCT-15) was 13.7 µM and the GI50 (CAKI-1) was 9.5 µM. The CC50 (CAKI-1) was 48.6 µM, the GI50 (TK-10) was 15.3 µM and the CC50 (TK-10) was 53.8 µM. It also gave a GI50 (SW-620) of 3.38 µM, a CC50 (SW-620) of 40.8 µM and a GI50 (SNB-19) of 13.4 µM. For the same molecule, the CC50 (SNB-19) was 52.1 µM, the GI50 (KM12) was 13.4 µM and the CC50 (KM12) was 70.3 µM. The GI50 (HCC-2998) was 16 µM and the CC50 (HCC-2998) was 56 µM.

`CN(C)c1nc(NCCNS(=O)(=O)c2ccc(C(=O)/C=C/c3ccc(C(F)(F)F)cc3)cc2)nc(N2CCOCC2)n1` [23g] showed a GI50 (NCI-H23) of 13 µM, a CC50 (NCI-H23) of 52.6 µM and a GI50 (K-562) of 3.21 µM. It also gave a CC50 (K-562) of over 100 µM, a GI50 (SK-MEL-28) of 14.4 µM and a CC50 (SK-MEL-28) of 52.6 µM. For the same molecule, the GI50 (786-0) was 14.5 µM, the CC50 (786-0) was 54.9 µM and the GI50 (MDA-MB-468) was 5.11 µM. For the same molecule, the CC50 (MDA-MB-468) was 48.8 µM, the GI50 (NCI-H460) was 16.1 µM and the CC50 (NCI-H460) was 65.6 µM. The GI50 (HOP-92) was 15.2 µM, the CC50 (HOP-92) was 65.2 µM and the GI50 (SK-MEL-5) was 15.8 µM. For the same molecule, the CC50 (SK-MEL-5) was 54.9 µM, the GI50 (IGROV1) was 1770 nM and the CC50 (IGROV1) was 6.97 µM. For the same molecule, the GI50 (SK-OV-3) was 14.7 µM, the CC50 (SK-OV-3) was 59 µM and the GI50 (NCI-H522) was 15.2 µM. It also gave a CC50 (NCI-H522) of 58.2 µM, a GI50 (RXF 393) of 11.5 µM and a CC50 (RXF 393) of 49 µM. The GI50 (A549/ATCC) was 13.8 µM, the CC50 (A549/ATCC) was 62.3 µM and the GI50 (SK-MEL-2) was 16.3 µM. The CC50 (SK-MEL-2) was 56.7 µM, the GI50 (SR) was 6.31 µM and the CC50 (SR) was over 100 µM. It also gave a GI50 (HCT-15) of 1860 nM, a CC50 (HCT-15) of 7.07 µM and a GI50 (CAKI-1) of 11.4 µM. It also gave a CC50 (CAKI-1) of 51.7 µM, a GI50 (TK-10) of 15.5 µM and a CC50 (TK-10) of 56 µM. For the same molecule, the GI50 (SW-620) was 3.3 µM, the CC50 (SW-620) was 36.5 µM and the GI50 (SNB-19) was 13.5 µM. For the same molecule, the CC50 (SNB-19) was 51.3 µM, the GI50 (KM12) was 8.95 µM and the CC50 (KM12) was 68.3 µM. It also gave a GI50 (HCC-2998) of 12.9 µM and a CC50 (HCC-2998) of 52.5 µM.
